What was measured:
[1] = In vivo hTauP301L model: spatial memory tests (T-maze, Object Location test); parameters: species or system mouse; details: 35 days; for OLT discrimination index / T-maze percentage of success: adult mice
Experimental: (§1) In vivo hTau301L model was induced by stereotaxic injection of AAV-hTauP301L (AAV-hTau) particles as described in [Luengo, Enrique et al. "Implication of type 4 NADPH oxidase (NOX4) in tauopathy." Redox biology vol. 49 (2022): 102210. doi:10.1016/j.redox.2021.102210 ]. Control animals were injected with AAV-GFP. Evaluation of hyperphosphorylated tau in sarkosyl soluble and insoluble fractions; microgliosis; AT8 and AT180 by immunofluorescence; and cognitive test were performed as described previously [Luengo, Enrique et al. "Implication of type 4 NADPH oxidase (NOX4) in tauopathy." Redox biology vol. 49 (2022): 102210. doi:10.1016/j.redox.2021.102210 ].
Oral administration of Compound 1 at different dosages (20 mg·kg^-1 and 50 mg·kg^-1) was administered embedded in gelatine. The compound was given in a mixture of 10 % gelatine from porcine skin and 10 % sucralose in water, heated in a microwave oven. Before Compound 1 addition, gelatine mixture was left at RT. Afterwards, the compound was added, evenly mixed and plated 1 mL·well^-1 in a P24 plate. Before AAV injection, mice were trained to eat the gelatines by giving them one gelatine (without compound) per day for 4 consecutive days. After AAV injection, mice were treated once a day with control or Compound 1 gelatines for 35 consecutive days. This approach was followed in adult (3-4 months old) and aged (16-18 months old) mice injected with AAV-GFP or AAV-hTauP301L.
Example 2.5. Compound 1 ameliorates hTauP301L induced FTD and cognitive decline in adult (3-4 months old) mice. FTD was generated in adult male and female C57BL/6J mice (3-4 months old) by bihippocampal injection of AAV-hTau particles containing the P301L mutation. Mice were treated orally once a day with a single dose of 20 or 50 mg/kg of Compound 1 formulated in gelatines the day after stereotaxic delivery of AAVs (GFP or TauP301L, to controls and FTD, respectively). After 35 days treatment, hyperphosphorylated tau levels were evaluated by immunofluorescence and by WB in soluble and insoluble in sarkosyl fractions. Also, behavioural tests were conducted to study the cognition status of the mice.
Spatial memory was measured using the T-maze (Figure 9A) and the Object localization tests (OLT; Figure 9B).
Example 2.6. Compound 1 ameliorates hTauP301L induced FTD and cognitive decline in aged (16-18 months old) mouse. To include the aging effect in the FTD model, the previous experiments were replicated in male and female 16-18 months old C57/BL6J mice.

hyperphosphorylated tau = test: In vivo hTauP301L model: western blot of sarkosyl soluble and insoluble hyperphosphorylated tau; parameters: species or system mouse; details: adult mice; 50 mg/kg/day oral, 35 days; sarkosyl insoluble fraction
Experimental: as §1
Oral administration of Compound 1 at different dosages (20 mg·kg^-1 and 50 mg·kg^-1) was administered embedded in gelatine. The compound was given in a mixture of 10 % gelatine from porcine skin and 10 % sucralose in water, heated in a microwave oven. Before Compound 1 addition, gelatine mixture was left at RT. Afterwards, the compound was added, evenly mixed and plated 1 mL·well^-1 in a P24 plate. […]
Example 2.5. […] After 35 days treatment, hyperphosphorylated tau levels were evaluated by immunofluorescence and by WB in soluble and insoluble in sarkosyl fractions. […]
After 35 days of treatment, monomeric and oligomeric forms of tau, soluble and insoluble in sarkosyl, were analysed by western blot. […]

[2] = target: T1, human lipoxygenase-5 (hLOX-5) (Homo sapiens, UniProt P09917); test: Inhibition of human lipoxygenase-5; format: biochemical; details: mean ± SD of three independent experiments in triplicate; read-out: LOX5 IC50
T1 sequence (P09917 1-674): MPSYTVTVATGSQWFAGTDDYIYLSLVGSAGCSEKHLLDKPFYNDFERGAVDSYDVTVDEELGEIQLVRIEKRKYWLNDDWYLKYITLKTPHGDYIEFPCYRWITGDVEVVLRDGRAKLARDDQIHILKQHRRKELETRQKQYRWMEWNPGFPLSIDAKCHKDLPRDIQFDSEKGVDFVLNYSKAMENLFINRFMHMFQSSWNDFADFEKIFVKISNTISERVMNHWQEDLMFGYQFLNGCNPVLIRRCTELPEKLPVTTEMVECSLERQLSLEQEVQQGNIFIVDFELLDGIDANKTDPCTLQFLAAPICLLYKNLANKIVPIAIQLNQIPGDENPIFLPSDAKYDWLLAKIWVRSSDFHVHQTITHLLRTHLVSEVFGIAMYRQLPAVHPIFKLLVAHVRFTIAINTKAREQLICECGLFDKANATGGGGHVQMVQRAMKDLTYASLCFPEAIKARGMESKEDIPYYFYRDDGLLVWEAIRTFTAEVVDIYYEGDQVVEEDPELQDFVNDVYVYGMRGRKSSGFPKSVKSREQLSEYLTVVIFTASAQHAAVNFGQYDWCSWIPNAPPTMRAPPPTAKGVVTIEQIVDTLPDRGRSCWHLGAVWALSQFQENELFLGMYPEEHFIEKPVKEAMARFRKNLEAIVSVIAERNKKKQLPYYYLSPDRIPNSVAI
Experimental: The inhibition of human lipoxygenase-5 (hLOX-5) was performed as described [Herrera-Arozamena, Clara et al. "Tuning melatonin receptor subtype selectivity in oxadiazolone-based analogues: Discovery of QR2 ligands and NRF2 activators with neurogenic properties." European journal of medicinal chemistry vol. 190 (2020): 112090. doi:10.1016/j.ejmech.2020.112090], Data are the mean ± SD of three independent experiments performed in triplicate.

NRF2 = NRF2 induction, luciferase activity in AREc32 cells; format: cell-based; details: concentration that doubles the activation of NRF2, read-out: NRF2 CD
Text: Screening of NRF2 induction was quantified by luciferase activity in AREc32 cells as described in [Herrera-Arozamena, Clara et al. "Tuning melatonin receptor subtype selectivity in oxadiazolone-based analogues: Discovery of QR2 ligands and NRF2 activators with neurogenic properties." European journal of medicinal chemistry vol. 190 (2020): 112090. doi:10.1016/j.ejmech.2020.112090].
Based on the results obtained (Table 2), Compound 1 was selected for further in vitro and in vivo studies as it was endowed with the best anti-neuroinflammatory activity. Table 2: Comparative in vitro results. Cell viability/toxicity: effect of the compound per se on cell viability of […] cells measured with the MTT method. Anti-neuroinflammatory effect: % Reduction of nitrites in primary rat glial cultures. PAMPA-BBB: In vitro blood-brain barrier permeation assay, permeation rate Pe (10-6 cm.s-1). NRF2, CD (µM): Concentration of compound that doubles de activation of NRF2. ORAC: Oxygen radical absorbance capacity. LOX-5: lipoxygenase-5.

[3] = aged (16-18 months old) mice, 50 mg/kg oral

COc1ccc2c(c1)CC(c1c[nH]c3ccc(OC)cc13)N2 (stereo not shown) [Compound 1, 5-Methoxy-3-(5-methoxyindolin-2-yl)-1H-indole]
OLT discrimination index ([1]; 20 mg/kg or 50 mg/kg oral): dose-dependent improvement | T-maze percentage of success ([1]; 20 mg/kg or 50 mg/kg oral): dose-dependent improvement | OLT discrimination index ([1]; 50 mg/kg oral): total recovery | T-maze percentage of success ([1]; 50 mg/kg oral): total recovery | spatial memory loss, OLT [1, 3]: prevented | spatial memory loss, T-maze [1, 3]: prevented | insoluble monomers of AT180 (hyperphosphorylated tau): significant reduction | insoluble oligomers of AT180 (hyperphosphorylated tau): tendency to reduce | IC50 [2]: 3.08 ± 0.29 µM | EC (2-fold activation) (NRF2): 0.56 ± 0.05 µM
